Legend:
CCKA receptor = biological target: T1, CCKA receptor (Rattus norvegicus, UniProt P30551); assay: [125]I-CCK-8 receptor binding assay, CCKA (rat pancreas membranes); settings: for IC50: rat pancreas membranes, 125I-Bolton-Hunter labeled CCK 25 pM, pH 6.5, 2 hrs at RT, read-out: Binding affinity Activity CCK-A
T1 construct: Pancreatic membranes were prepared in a similar way described by Charpentier et al; from tissue; host or cells: rat pancreas membranes
T1 sequence (P30551 1-444): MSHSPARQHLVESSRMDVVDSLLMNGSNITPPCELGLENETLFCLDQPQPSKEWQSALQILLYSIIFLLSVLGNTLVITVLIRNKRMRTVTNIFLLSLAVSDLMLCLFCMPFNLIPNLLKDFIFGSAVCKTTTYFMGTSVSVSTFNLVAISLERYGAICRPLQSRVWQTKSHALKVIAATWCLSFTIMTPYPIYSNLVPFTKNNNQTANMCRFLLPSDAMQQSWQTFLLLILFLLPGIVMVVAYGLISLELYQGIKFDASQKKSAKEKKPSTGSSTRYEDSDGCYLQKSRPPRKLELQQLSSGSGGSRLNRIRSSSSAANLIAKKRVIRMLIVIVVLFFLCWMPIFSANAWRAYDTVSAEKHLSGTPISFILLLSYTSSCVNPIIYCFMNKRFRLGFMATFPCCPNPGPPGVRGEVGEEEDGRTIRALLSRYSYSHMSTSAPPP
Protocol: (§1) CCKA and CCKB receptor binding assays were performed using guinea pig cerebral cortex (CCKB) and rat pancreas (CCKA). Male guinea pig brain tissues were prepared according to the modified method described by Saita et al, [(1994), Eur. J. Pharmacol., 269, 249-254]. Pancreatic membranes were prepared in a similar way described by Charpentier et al, [(1988), Proc Natl Acad Sci USA, 85, 1968-1972]. Briefly, tissues were homogenized in ice cold sucrose (0.32 M, 25 ml) for 15 strokes at 500 rpm and centrifuged at 13000 rpm for 10 mins. The supernatant was re-centrifuged at 13000 rpm for 20 mins. The resulting pellet was re-dispersed to the required volume of buffer at 500 rpm and stored in aliquots at −70° C.
(§2) Binding was achieved using a radioligand ^125I-Bolton-Hunter labeled CCK, NEN at 25 pM. The samples were incubated {with membranes (0.1 mg/ml)} in 20 mM Hepes, 1 mM EGTA, 5 mM MgCl2, 150 mm NaCl, 0.25 mg/ml bacitracin at pH 6.5 for 2 hrs at RT and then […] by centrifugation at 1100 rpm for 5 minutes. The membrane pellets were washed twice with water and the bound radioactivity was measured in a Packard Cobra Auto-gamma counter (B5005). All binding assays were carried out with L-363, 260 as an internal non-specific standard. Controls (no compound) were also added. All samples were made in duplicate and repeated twice. All compounds were initially screened for percentage inhibition at 10 μm. Samples showing an average inhibition of >35% were diluted to 1 μm and re-screened and if active diluted again.

CCKB receptor = biological target: T2, CCKB receptor (Cavia porcellus, UniProt H0VZC5); assay: [125]I-CCK-8 receptor binding assay, CCKB (guinea pig cerebral cortex membranes); settings: for IC50: guinea pig cerebral cortex membranes, 125I-Bolton-Hunter labeled CCK 25 pM, pH 6.5, 2 hrs at RT, read-out: Binding affinity Activity CCK-B
T2 construct: Male guinea pig brain tissues were prepared according to the modified method described by Saita et al; from tissue; host or cells: male guinea pig cerebral cortex membranes
T2 sequence (H0VZC5 1-426): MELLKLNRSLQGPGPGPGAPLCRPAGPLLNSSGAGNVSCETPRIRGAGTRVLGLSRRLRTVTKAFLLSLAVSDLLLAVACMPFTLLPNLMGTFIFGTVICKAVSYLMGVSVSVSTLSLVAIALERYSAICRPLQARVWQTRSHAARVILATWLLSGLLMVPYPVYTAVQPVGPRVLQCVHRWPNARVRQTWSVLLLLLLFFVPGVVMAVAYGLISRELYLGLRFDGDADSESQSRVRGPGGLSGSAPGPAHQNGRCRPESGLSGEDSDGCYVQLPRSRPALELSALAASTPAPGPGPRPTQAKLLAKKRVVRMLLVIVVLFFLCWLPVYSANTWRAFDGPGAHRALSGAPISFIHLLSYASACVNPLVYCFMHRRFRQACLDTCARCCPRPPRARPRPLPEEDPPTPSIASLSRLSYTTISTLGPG
Protocol: as §1, §2

IC50 (CCKA receptor) | IC50 (CCKB receptor) | melting point | CCK antagonist character (in words) (CCKA receptor; judgement in words on CCK-A and CCK-B binding) | affinity towards the CCK B receptor (in words) (CCKB receptor; judgement in words) | SMILES
2.5 µM | > 10 µM | – | – | – | O=C1C=C(Cl)C(O)(c2ccc(Cl)cc2)N1C1CCCC1 (stereo not drawn) [Example 17, 4-Chloro-5-(4-chloro-phenyl)-1-cyclopentyl-5-hydroxy-1,5-dihydro-pyrrol-2-one]
> 10 µM | > 10 µM | – | – | – | C[C@H](c1ccccc1)N1C(=O)C=C(Cl)C1(O)c1ccccc1 (single isomer, unassigned) [Example 10b]
> 10 µM | > 10 µM | – | – | – | O=C1C=C(Cl)C(O)(c2ccccc2)N1C1CCCCC1 (stereo not drawn) [Example 11, 4-Chloro-1-cyclohexyl-5-hydroxy-5-phenyl-1,5-dihydro-pyrrol-2-one]
2.5 µM | > 10 µM | – | – | – | O=C1C=C(Cl)C(O)(c2ccccc2)N1C1CC1 (stereo not drawn) [Example 1, 4-Chloro-1-cyclopropyl-5-hydroxy-5-phenyl-1,5-dihydro-pyrrol-2-one]
> 10 µM | > 10 µM | – | – | – | CN1C(=O)C=C(Cl)C1(O)c1ccccc1 (stereo not drawn) [Example 4, 4-Chloro-5-hydroxy-1-methyl-5-phenyl-1,5-dihydro-pyrrol-2-one]
2.2 µM | > 10 µM | 149 to 152 °C | – | – | O=C1C=C(Cl)C(O)(c2ccc(Cl)cc2)N1Cc1ccccc1 (stereo not drawn) [Example 19, 1-Benzyl-4-chloro-5-(4-chloro-phenyl)-5-hydroxy-1,5-dihydro-pyrrol-2-one]
7.5 µM | > 10 µM | – | – | – | O=C1C=C(Cl)C(O)(c2ccc(Cl)cc2)N1C1CC1 (stereo not drawn) [Example 12, 4-Chloro-5-(4-chloro-phenyl)-1-cyclopropyl-5-hydroxy-1,5-dihydro-pyrrol-2-one]
> 10 µM | > 10 µM | – | – | – | CCCCCCN1C(=O)C=C(Cl)C1(O)c1ccc(Cl)cc1 (stereo not drawn) [Example 16, 4-Chloro-5-(4-chloro-phenyl)-1-hexyl-5-hydroxy-1,5-dihydro-pyrrol-2-one]
2 µM | > 10 µM | 168 to 171 °C | – | – | Cc1ccc(N2C(=O)C=C(Cl)C2(O)c2ccccc2)cc1C (stereo not drawn) [Example 2, 4-Chloro-1-(3,4-dimethyl-phenyl)-5-hydroxy-5-phenyl-1,5-dihydro-pyrrol-2-one]
0.36 µM | 0.84 µM | – | – | – | O=C1C=C(Cl)C(O)(c2ccccc2)N1C1CCCC1 (stereo not drawn) [Example 7, 4-Chloro-1-cyclopentyl-5-hydroxy-5-phenyl-1,5-dihydro-pyrrol-2-one]
0.02 µM | 0.02 µM | 155 to 158 °C | potent and mixed CCK antagonist | – | O=C1C=C(Cl)C(O)(c2ccccc2)N1CCc1ccccc1 (stereo not drawn) [Example 5, 4-Chloro-5-hydroxy-1-phenethyl-5-phenyl-1,5-dihydro-pyrrol-2-one]
> 10 µM | > 10 µM | – | – | – | CC(C)N1C(=O)C=C(Cl)C1(O)c1ccccc1 (stereo not drawn) [Example 3, 4-Chloro-5-hydroxy-1-isopropyl-5-phenyl-1,5-dihydro-pyrrol-2-one]
0.002 µM | 0.0015 µM | 145 to 148 °C | – | – | O=C1C=C(Cl)C(O)(c2ccc(Cl)cc2)N1CCc1ccccc1 (stereo not drawn) [Example 15, 4-Chloro-5-(4-chloro-phenyl)-5-hydroxy-1-phenethyl-1,5-dihydro-pyrrol-2-one]
> 10 µM | > 10 µM | – | – | – | CN1C(=O)C=C(Cl)C1(O)c1ccc(Cl)cc1 (stereo not drawn) [Example 14, 4-Chloro-5-(4-chloro-phenyl)-5-hydroxy-1-methyl-1,5-dihydro-pyrrol-2-one]
> 10 µM | > 10 µM | 162 to 164 °C | – | – | C[C@H](c1ccccc1)N1C(=O)C=C(Cl)C1(O)c1ccccc1 (single isomer, unassigned) [Example 10a]
> 10 µM | > 10 µM | – | – | – | O=C1C=C(Cl)C(O)(c2ccccc2)N1Cc1ccccc1 (stereo not drawn) [Example 9, 1-Benzyl-4-chloro-5-hydroxy-5-phenyl-1,5-dihydro-pyrrol-2-one]
> 10 µM | > 10 µM | – | – | – | CC(C)N1C(=O)C=C(Cl)C1(O)c1ccc(Cl)cc1 (stereo not drawn) [Example 13, 4-Chloro-5-(4-chloro-phenyl)-5-hydroxy-1-isopropyl-1,5-dihydro-pyrrol-2-one]
4.5 µM | 0.01 µM | – | – | good affinity | CC(C)CN1C(=O)C=C(Cl)C1(O)c1ccccc1 (stereo not drawn) [Example 8, 4-Chloro-5-hydroxy-1-isobutyl-5-phenyl-1,5-dihydro-pyrrol-2-one]
> 10 µM | > 10 µM | – | – | – | CCCCCCN1C(=O)C=C(Cl)C1(O)c1ccccc1 (stereo not drawn) [Example 6, 4-Chloro-1-hexyl-5-hydroxy-5-phenyl-1,5-dihydro-pyrrol-2-one]
